Measurements as given in patent US9371328B2, “Imidazopyridazinecarbonitriles useful as kinase inhibitors” (BRISTOL-MYERS SQUIBB COMPANY, priority 2008, dated 2016).
Where two headings read alike, the source gives them in different places.

How the values were obtained:
HCT116 = experiment: Cell proliferation inhibition assay (MTT/MTS); assay type: cell-based; conditions: Homo sapiens, HCT-116, Table 1, 72 h with compound
Experimental: Compounds were evaluated for their ability to inhibit cell proliferation, using an assay that measures mitochondrial metabolic activity, that is directly correlated with cell numbers. Cells were plated at 2000 cells/well in 96-well plates and were cultured for 24 h in RPMI-1640 supplemented with 2% fetal bovine serum, before test compounds were added. Compounds were diluted in culture medium such that the final concentration of dimethyl sulfoxide never exceeded 1%. Following the addition of compounds, the cells were cultured for an additional 72 h before cell viability was determined by measuring the conversion of 3-(4,5-dimethylthiazol-2-yl)-2,5-diphenyltetrazolium bromide (MTT) dye using the CellTiter96 kit (Promega) or by measuring the conversion of [3-(4,5-dimethylthiazol-2-yl)-5-(3-carboxymethoxyphenyl)-2-(4-sulfophenyl)-2H-tetrazolium (MTS) dye using the CELLTITER 96® AQueous (Promega).

CK2A1 (CK2α/β) = target: T1, CK2A1 (CK2α/β) (Homo sapiens, UniProt P68400); experiment: CK2 kinase assay, CK2A1 (CK2α/β); assay type: biochemical
T1 construct: made in house
Experimental: (§1) The effectiveness of compounds of the present invention as inhibitors of protein kinases can be readily tested by assays known to those skilled in the art. For example, in vitro protein kinase assays may be conducted with a relevant purified protein kinase and an appropriate synthetic substrate to determine the inhibitory activity of the compounds. […] Reaction mixtures were incubated at 30° C. for 1 hour, and reaction products were captured by binding to phosphocellulose (P81) filter plates. Incorporation of radioactive phosphate into the peptide substrate was determined by liquid scintillation counting. The potency of compounds in inhibiting CK2 is expressed as IC50, defined as the concentrations of compounds required to inhibit the enzymatic activity by 50%.
(§2) The inhibitory activity of the instant compounds may also be measured by recombinant CK2 holoenzyme kinase assays. The assays were performed in U-bottom 384-well plates. The final assay volume was 30 μl prepared from 15 μl additions of enzyme and substrates (fluoresceinated peptide FL-RRRADDSDDDDD-NH2 and ATP) and test compounds in assay buffer (20 mM HEPES pH 7.4, 10 mM MgCl2, 100 mM NaCl, 0.015% Brij35 and 0.25 mM DTT). The reaction was initiated by the combination of bacterially expressed, CK2 α/β or CK2 α′/β holoenzyme with substrates and test compounds. The reaction was incubated at room temperature for 60 minutes and terminated by adding 30 μl of 35 mM EDTA to each sample. The reaction mixture was analyzed on the Caliper LABCHIP® 3000 (Caliper, Hopkinton, Mass.) by electrophoretic separation of the fluorescent substrate and phosphorylated product. Inhibition data were calculated by comparison to no enzyme control reactions for 100% inhibition and vehicle-only reactions for 0% inhibition. The final concentration of reagents in the CK2 α/β assay was 25 μM ATP, 1.5 μM FL-RRRADDSDDDDD-NH2, […] CK2 α/β holoenzyme, and 1.6% DMSO. The final concentration of reagents in the CK2 α′/β assay was 10 μM ATP, 1.5 μM FL-RRRADDSDDDDD-NH2, 100 pM CK2 α′/β holoenzyme, and 1.6% DMSO. Dose response curves were generated to determine the concentration required inhibiting 50% of kinase activity (IC50). Compounds were dissolved at 10 mM in dimethylsulfoxide (DMSO) and evaluated at eleven concentrations. IC50 values were derived by non-linear regression analysis.

CK2A2 (CK2α′/β) = target: T2, CK2A2 (CK2α′/β) (Homo sapiens, UniProt P19784); experiment: CK2 kinase assay, CK2A2 (CK2α′/β); assay type: biochemical
T2 construct: made in house
Experimental: as §1, §2

[1] = Table 1, read-out: CK2A1 (CK2α/β) (IC50)
[2] = Table 1, read-out: CK2A2 (CK2α′/β) (IC50)
[3] = Table 2, comparison compounds of US 2008/0045536, read-out: CK2A1 IC50
[4] = Table 2, comparison compounds of US 2008/0045536, read-out: CK2A2 IC50

T1 sequence (P68400 whole entry, species assumed): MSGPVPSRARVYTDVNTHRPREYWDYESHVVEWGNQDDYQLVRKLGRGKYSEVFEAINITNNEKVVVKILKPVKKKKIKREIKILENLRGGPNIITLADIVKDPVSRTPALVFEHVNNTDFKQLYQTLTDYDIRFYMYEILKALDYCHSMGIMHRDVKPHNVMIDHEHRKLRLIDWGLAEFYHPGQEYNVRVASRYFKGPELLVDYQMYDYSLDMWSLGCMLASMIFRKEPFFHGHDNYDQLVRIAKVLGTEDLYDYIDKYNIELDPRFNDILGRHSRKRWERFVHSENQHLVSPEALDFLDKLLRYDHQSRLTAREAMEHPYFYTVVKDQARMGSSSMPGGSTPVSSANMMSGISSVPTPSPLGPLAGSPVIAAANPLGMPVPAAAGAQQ
T1 sequence (P67870 whole entry partner, species assumed): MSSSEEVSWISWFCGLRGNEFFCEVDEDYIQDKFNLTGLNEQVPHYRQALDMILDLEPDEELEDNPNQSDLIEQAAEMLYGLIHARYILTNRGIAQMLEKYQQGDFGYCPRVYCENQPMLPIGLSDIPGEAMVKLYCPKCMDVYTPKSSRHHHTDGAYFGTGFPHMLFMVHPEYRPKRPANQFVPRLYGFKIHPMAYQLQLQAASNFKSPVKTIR
T2 sequence (P19784 whole entry, species assumed): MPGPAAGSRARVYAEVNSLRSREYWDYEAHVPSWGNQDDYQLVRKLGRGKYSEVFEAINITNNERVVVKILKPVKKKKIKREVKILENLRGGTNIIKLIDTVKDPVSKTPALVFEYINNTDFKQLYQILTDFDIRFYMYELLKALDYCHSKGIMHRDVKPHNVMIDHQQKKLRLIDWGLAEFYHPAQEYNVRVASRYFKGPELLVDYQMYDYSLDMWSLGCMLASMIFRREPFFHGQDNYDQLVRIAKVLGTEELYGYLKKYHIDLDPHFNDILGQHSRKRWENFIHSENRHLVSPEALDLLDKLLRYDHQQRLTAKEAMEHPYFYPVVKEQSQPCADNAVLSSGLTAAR
T2 sequence (P67870 whole entry partner, species assumed): as the sequence (P67870 whole entry partner, species assumed) above

SMILES	IC50 (HCT116)	IC50 (CK2A1 (CK2α/β); [1])	IC50 (CK2A2 (CK2α′/β); [2])	IC50 (CK2A1 (CK2α/β); [3])	IC50 (CK2A2 (CK2α′/β); [4])
Cc1cc(Cl)c(Nc2cc(NC3CC3)c3ncc(C#N)n3n2)cc1C#N [Example 225, 6-((2-Chloro-5-cyano-4-methylphenyl)amino)-8-(cyclopropylamino)imidazo [1,2-b]pyridazine-3-carbonitrile]	35 nM	8.2 nM	1.1 nM	–	–
N#Cc1cnc2c(NC3CC3)cc(Nc3cccc(-c4nnco4)c3)nn12 [Example 82, 8-(Cyclopropylamino)-6-((3-(1,3,4-oxadiazol-2-yl)phenyl)amino)imidazo[1,2-b]pyridazine-3-carbonitrile]	127 nM	479 nM	126 nM	–	–
CCN(CC)c1ccc(Nc2cc(NC3CC3)c3ncc(C#N)n3n2)cc1 [Example 244, 8-(Cyclopropylamino)-6-((4-(diethylamino)phenyl)amino)imidazo[1,2-b]pyridazine-3-carbonitrile]	1110 nM	102 nM	22.8 nM	–	–
CC(C)C(=O)Nc1cccc(Nc2cc(NC3CC3)c3ncc(C#N)n3n2)c1 [Example 66, N-(3-((3-Cyano-8-(cyclopropylamino)imidazo [1,2-b]pyridazin-6-yl)amino)phenyl)-2-methylpropanamide]	> 2500 nM	6060 nM	778 nM	–	–
Cc1nc(-c2cccc(Nc3cc(NC4CC4)c4ncc(C#N)n4n3)c2)cs1 [Example 80, 8-(Cyclopropylamino)-6-((3-(2-methyl-1,3-thiazol-4-yl)phenyl)amino)imidazo[1,2-b]pyridazine-3-carbonitrile]	> 1000 nM	4660 nM	1490 nM	–	–
COc1ccc(Nc2cc(NC3CC3)c3ncc(C#N)n3n2)cc1OC [Example 56, 8-(Cyclopropylamino)-6-((3,4-dimethoxyphenyl)amino)imidazo[1,2-b] pyridazine-3-carbonitrile]	482 nM	155 nM	35.9 nM	–	–
N#Cc1cnc2c(NC3CC3)cc(Nc3cccc(C(=O)O)c3)nn12 [Example 44, 3-((3-Cyano-8-(cyclopropylamino)imidazo [1,2-b]pyridazin-6-yl)amino) benzoic acid]	> 1000 nM	1310 nM	35.1 nM	–	–
Cc1ccc(Nc2cc(N[C@H]3CC[C@H](N)CC3)nn3ccnc23)nc1 [II(16), reference compound]	–	–	–	> 50000 nM	31800 nM
COc1ccc(C#N)cc1Nc1cc(N)c2ncc(C#N)n2n1 [Example 228, 8-Amino-6-((5-cyano-2-methoxyphenyl)amino) imidazo[1,2-b]pyridazine-3-carbonitrile]	327 nM	9 nM	1.7 nM	–	–
N#Cc1cnc2c(NC3CC3)cc(Nc3ccc(Cl)c(-c4ncco4)c3)nn12 [Example 81, 6-((4-Chloro-3-(1,3-oxazol-2-yl)phenyl)amino)-8-(cyclopropylamino)imidazo [1,2-b]pyridazine-3-carbonitrile]	> 1000 nM	512 nM	115 nM	–	–
Cc1cc(O)nc2cc(Nc3cc(NC4CC4)c4ncc(C#N)n4n3)ccc12 [Example 58, 8-(Cyclopropylamino)-6-((4-methyl-2-oxo-1,2-dihydro-7-quinolinyl)amino)imidazo[1,2-b]pyridazine-3-carbonitrile]	98 nM	12.2 nM	2.2 nM	–	–
CN1CCN(C(=O)c2ccc(Nc3cc(NC4CC4)c4ncc(C#N)n4n3)cc2N)CC1 [Example 89, 6-((3-Amino-4-((4-methyl-1-piperazinyl)carbonyl)phenyl)amino)-8-(cyclopropylamino)imidazo [1,2-b]pyridazine-3-carbonitrile]	> 1000 nM	6670 nM	940 nM	–	–
COC(=O)Nc1cc(Nc2cc(NC3CC3)c3ncc(C#N)n3n2)ccc1C [Example 95, Methyl (5-((3-cyano-8-(cyclopropylamino)imidazo [1,2-b]pyridazin-6-yl)amino)-2-methylphenyl) carbamate]	22 nM	6.5 nM	3 nM	–	–
CCOc1ccc(Nc2cc(N[C@H]3CC[C@H](N)CC3)nn3ccnc23)cc1 [I(1), reference compound]	–	–	–	> 50000 nM	–
N#Cc1cnc2c(NC3CC3)cc(Nc3ccc(F)c(-n4cnnc4)c3)nn12 [Example 46, 8-(Cyclopropylamino)-6-((4-fluoro-3-(4H-1,2,4-triazol-4-yl)phenyl)amino)imidazo [1,2-b]pyridazine-3-carbonitrile]	150 nM	4.3 nM	2.4 nM	–	–
N#Cc1ccnc(Nc2cc(NC3CC3)c3ncc(C#N)n3n2)c1 [Example 168, 6-((4-Cyano-2-pyridinyl)amino)-8-(cyclopropylamino) imidazo[1,2-b]pyridazine-3-carbonitrile]	128 nM	11.9 nM	4.9 nM	–	–
Cc1c(N[C@H]2CC[C@H](N)CC2)nn2c(C#N)cnc2c1Nc1ccccc1 [XXV(1), reference compound]	–	–	–	2690 nM	8090 nM
N#Cc1cnc2c(NC3CC3)cc(Nc3cccc(N4CCCC4=O)c3)nn12 [Example 73, 8-(Cyclopropylamino)-6-((3-(2-oxo-1-pyrrolidinyl)phenyl)amino)imidazo[1,2-b]pyridazine-3-carbonitrile]	2240 nM	4600 nM	738 nM	–	–
COc1ccc(Nc2cc(Nc3ccc(OC(F)(F)F)c(-n4cnnc4)c3)nn3c(C#N)cnc23)nc1 [Example 111, 8-((5-Methoxy-2-pyridinyl)amino)-6-((3-(4H-1,2,4-triazol-4-yl)-4-(trifluoromethoxy)phenyl)amino)imidazo[1,2-b] pyridazine-3-carbonitrile]	34 nM	116 nM	24 nM	–	–
Cc1ccc(Nc2cc(Nc3ccccn3)c3ncc(C#N)n3n2)cc1C#N [Example 196, 6-((3-Cyano-4-methylphenyl)amino)-8-(2-pyridinylamino)imidazo[1,2-b]pyridazine-3-carbonitrile]	65 nM	12.2 nM	3.4 nM	–	–
CC(=O)Nc1cc(Nc2cc(NC3CC3)c3ncc(C#N)n3n2)ccc1C [Example 1, N-(5-((3-Cyano-8-(cyclopropylamino)imidazo[1,2-b]pyridazin-6-yl)amino)-2-methylphenyl)acetamide]	30 nM	6 nM	7.5 nM	–	–
Cc1ccc(Nc2cc(NC3CC3)c3ncc(C#N)n3n2)cc1CC(=O)O [Example 224, (5-((3-Cyano-8-(cyclopropylamino)imidazo [1,2-b]pyridazin-6-yl)amino)-2-methylphenyl) acetic acid]	> 10000 nM	794 nM	126 nM	–	–
N[C@H]1CC[C@H](Nc2cc(Nc3ccccc3)c3nccn3n2)CC1 [I(7), reference compound]	–	–	–	> 50000 nM	> 50000 nM
N#Cc1cnc2c(NC3CC3)cc(Nc3cccc(-c4cccnc4)c3)nn12 [Example 214, 8-(Cyclopropylamino)-6-((3-(3-pyridinyl)phenyl)amino) imidazo[1,2-b]pyridazine-3-carbonitrile]	> 10000 nM	596 nM	119 nM	–	–
N#Cc1cnc2c(NC3CC3)cc(Nc3cccc(C(N)=O)c3)nn12 [Example 71, 3-((3-Cyano-8-(cyclopropylamino)imidazo [1,2-b]pyridazin-6-yl)amino) benzamide]	945 nM	261 nM	15.6 nM	–	–
Cc1cc(Cl)c(Nc2cc(Nc3ccccn3)c3ncc(C#N)n3n2)cc1C#N [Example 233, 6-((2-Chloro-5-cyano-4-methylphenyl)amino)-8-(2-pyridinylamino)imidazo[1,2-b]pyridazine-3-carbonitrile]	128 nM	7.1 nM	2.3 nM	–	–
